Laboratory results from PMC7194175 (Nature plants, 2019).

Legend:
CYP72A9 = biological target: T1, CYP72A9 (Arabidopsis thaliana, UniProt F4IW82); assay: feeding of recombinant WAT11 yeast culture, GC-MS of products; format: cell-based; details: AtCPR1 co-expressed, 30 °C, 16 h
T1 sequence (F4IW82 1-508): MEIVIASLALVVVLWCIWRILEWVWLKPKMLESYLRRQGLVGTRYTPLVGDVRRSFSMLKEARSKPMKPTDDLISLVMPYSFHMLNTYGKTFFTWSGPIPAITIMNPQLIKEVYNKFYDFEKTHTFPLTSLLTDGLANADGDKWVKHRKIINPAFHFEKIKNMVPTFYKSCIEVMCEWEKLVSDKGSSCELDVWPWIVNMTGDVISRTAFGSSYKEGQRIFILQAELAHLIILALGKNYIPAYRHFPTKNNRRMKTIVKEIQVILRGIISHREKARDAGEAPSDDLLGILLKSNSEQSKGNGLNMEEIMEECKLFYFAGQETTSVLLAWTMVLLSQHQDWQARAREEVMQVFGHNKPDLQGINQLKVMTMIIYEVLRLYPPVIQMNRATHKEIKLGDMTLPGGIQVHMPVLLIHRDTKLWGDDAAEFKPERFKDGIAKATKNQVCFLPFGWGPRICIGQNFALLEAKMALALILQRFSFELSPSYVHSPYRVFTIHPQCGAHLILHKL

CYP72A15 = biological target: T2, CYP72A15 (Arabidopsis thaliana, UniProt Q9LUC5); assay: as above; format: cell-based; details: AtCPR1 co-expressed; 30 °C, 16 h
T2 sequence (Q9LUC5 1-512): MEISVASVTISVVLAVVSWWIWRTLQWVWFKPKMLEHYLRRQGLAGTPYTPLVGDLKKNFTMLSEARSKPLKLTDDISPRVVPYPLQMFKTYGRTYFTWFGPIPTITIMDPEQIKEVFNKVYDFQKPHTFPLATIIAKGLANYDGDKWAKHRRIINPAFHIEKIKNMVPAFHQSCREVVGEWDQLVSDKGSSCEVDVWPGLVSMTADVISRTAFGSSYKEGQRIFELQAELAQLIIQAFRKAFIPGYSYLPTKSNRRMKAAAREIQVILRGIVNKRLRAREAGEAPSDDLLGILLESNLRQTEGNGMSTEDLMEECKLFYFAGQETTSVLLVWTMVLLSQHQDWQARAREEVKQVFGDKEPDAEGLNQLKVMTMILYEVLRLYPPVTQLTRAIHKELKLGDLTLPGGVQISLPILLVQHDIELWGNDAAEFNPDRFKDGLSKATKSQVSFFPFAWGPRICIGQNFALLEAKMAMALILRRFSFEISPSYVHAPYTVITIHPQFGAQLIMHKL

## C=C1C[C@]23C[C@H]1CC[C@H]2[C@@]12CC[C@H](O)[C@@](C)(C(=O)O1)[C@H]2[C@@H]3C(=O)O [GA4]
CYP72A9; 13-hydroxylation to GA1
  feeding of recombinant WAT11 yeast culture, GC-MS of products: hydroxylating GA4, GA9, and GA12 at C13 position to produce GA1, GA20, and GA53

## C=C1C[C@]23C[C@H]1CC[C@H]2[C@]1(C)CCC[C@@](C)(C(=O)O)[C@H]1[C@@H]3C(=O)O [GA12]
CYP72A15
  feeding of recombinant WAT11 yeast culture, GC-MS of products: utilized ent-kaurenoic acid, GA12 and GA9 as substrates rather than GA4
CYP72A9; 13-hydroxylation to GA53
  feeding of recombinant WAT11 yeast culture, GC-MS of products: hydroxylating GA4, GA9, and GA12 at C13 position to produce GA1, GA20, and GA53
